Experimental findings from ChEMBL document CHEMBL3596184, “Prostate tumor specific peptide-peptoid hybrid prodrugs” (2015) are described below.

Holding throughout (type): functional
Experiment [1] deals with LNCaP. Kind of experiment: Cytotoxicity against human LNCAP cells assessed as induction of cell death after 48 hrs by MTS assay. Conditions: read-out: LC50 (the source's name). Background: Formazan colour is commonly taken as a measure of viable cells.
Experiment [2] concerns LNCaP. The experiment is described as follows: Selectivity ratio of LC50 for human PC3 cells to LC50 for human LNCaP cells.
The test system of experiment [3] is PC-3. Kind of experiment: Cytotoxicity against human PC3 cells assessed as induction of cell death after 48 hrs by MTS assay. The conditions noted are these: PC-3, 48 h, read-out: LC50 (the source's name).

Numbered stars: 1 amine (or outer) side, 2 acyl side, 3 side chain; on linkers, the order of the positions; unused ones are H or OH. Square brackets hold non-standard residues; d marks the D form. Peptide text beside a SMILES is read from it. γGlu = O=C(O)[C@H](CCC(=O)[*:2])N[*:1]; Nspe = C[C@H](NCC(=O)O)c1ccccc1; Nlys = NCCCCNCC(=O)O

Consider `CC(C)C[C@H](NC(=O)[C@H](CCCCN)NC(=O)[C@H](CO)NC(=O)[C@H](CO)NC(=O)[C@H](Cc1cnc[nH]1)NC(=O)CC[C@H](NC(=O)CC[C@H](NC(=O)CC[C@H](NC(=O)CC[C@H](N)C(=O)O)C(=O)O)C(=O)O)C(=O)O)C(=O)N[C@@H](CCC(N)=O)C(=O)N(CCCCN)CC(=O)N(CC(=O)N(CC(=O)N(CCCCN)CC(=O)N(CC(=O)N(CC(=O)N(CCCCN)CC(=O)N(CC(=O)N(CC(=O)N(CCCCN)CC(=O)N(CC(=O)N(CC(N)=O)[C@@H](C)c1ccccc1)[C@@H](C)c1ccccc1)[C@@H](C)c1ccccc1)[C@@H](C)c1ccccc1)[C@@H](C)c1ccccc1)[C@@H](C)c1ccccc1)[C@@H](C)c1ccccc1)[C@@H](C)c1ccccc1` ({γGlu-γGlu-γGlu-γGlu}-HSSKLQ[Nlys][Nspe][Nspe][Nlys][Nspe][Nspe][Nlys][Nspe][Nspe][Nlys][Nspe][Nspe]-NH2), for which the figures for the CC50 in experiment [1] and in experiment [3] were 17 µM and 36 µM, respectively. Further, in experiment [2], the RatioLC50 is 2.1.
For `C[C@@H](c1ccccc1)N(CC(N)=O)C(=O)CN(C(=O)CN(CCCCN)C(=O)CN(C(=O)CN(C(=O)CN(CCCCN)C(=O)CN(C(=O)CN(C(=O)CN(CCCCN)C(=O)CN(C(=O)CN(C(=O)CNCCCCN)[C@@H](C)c1ccccc1)[C@@H](C)c1ccccc1)[C@@H](C)c1ccccc1)[C@@H](C)c1ccccc1)[C@@H](C)c1ccccc1)[C@@H](C)c1ccccc1)[C@@H](C)c1ccccc1` (H-[Nlys][Nspe][Nspe][Nlys][Nspe][Nspe][Nlys][Nspe][Nspe][Nlys][Nspe][Nspe]-NH2) the same measures were 5 µM, 8.5 µM and 1.7.
